From patent publication US5441948A, “1,3,4-benzotraizepin-5(4H)-one derivatives and process for the preparation thereof” (priority 1992, dated 1995)

What was measured:
[1] = system: isolated canine Purkinje fibres; test: Intracellular electrophysiology, action potential duration (50% and 90% repolarization) in isolated canine Purkinje fibres; assay type: cell-based, canine (mongrel dogs)
Protocol: I. Intracellular electrophysiological studies on isolated canine Purkinje fibres: study of the characteristics and the duration of the action potential
Mongrel dogs of both sexes, weighing 8-22 kg, were anaesthetized with intravenously administered sodium pentobarbital, 30 mg/kg (Nembutal®).The superficial Purkinje fibres were excised from the heart and placed in plastic organ bath containing Tyrode's solution ([…] of Na^+, 4.0 mM of K^+, 133.3 mM of Cl^-, 2.0 mM of Ca^2+, 22.0 mM of HCO3 -, 0.9 mM of H2 PO4^+, 0.7 mM of Mg^2+, 5.0 mM of glucose) The perfusate (Tyrode's solution) was gassed with a mixture of 95% of O^2 and 5% of CO2. Temperature of the organ bath was 37.0°±0.5° C. pH=7.3±0.5. Purkinje fibres were incubated for 1-2 hours in order to avoid spontaneous changes in the duration of action potential, to be observed often for a short period after the preparation completed. Conventional glass microelectrode method was used to measure intracellular action potentials. The electrodes were filled with 3M KCl solution, resistance was 5-15 Mohm. Microelectrodes were connected to high input-resistance capacity-neutralizing amplifier through a Ag-AgCl connection. Another electrode was placed in the organ bath as a reference electrode. Maximum rate of depolarization (Vmax) was measured with an electronic differentiating unit. The intracellular pulses were visualized on a two-channel oscilloscope by a microcomputer in on-line mode. The following parameters were measured: resting potential, action potential amplitude, 50% and 90% repolarizations, maximum rate of depolarization. Preparations were stimulated through silver electrodes insulated with PTFE. Parameters of stimuli were rectangular pulses of 1 ms duration with an intensity of two times the threshold. The basal stimulation periods were changed between 200 and 1000 msec. [Varre et al., J. Cardiovasc. Pharmacol. 11, 251 (1988)].
The applied dose of the compounds according to the invention is 10 mg/L.
Concentration of Pinacidil: 1 mg/L
Concentration of Nicorandil: 5 mg/L
APD: action potential duration

[2] = system: vasopressin-induced ST elevation; test: Inhibitory effect on the vasopressin-induced ST elevation in anaesthetized rats; assay type: in vivo, CFY male rats; conditions: vasopressin 3 IE/kg i.v.
Protocol: II. Inhibitory effect on the vasopressin-induced ST elevation in anaesthetized rats
The studies were performed in 200-250 g CFY male rats. Animals were anaesthetized with intraperitoneally administered urethane ([…]), then subjected to ECG, using limb leads. Coronary spasm, reflected by elevated ST deflection in the ECG recordings, was induced by treating the rats with 3 IE/kg of vasopressin intravenously. […] Methods. 5, 325-336 (1981)].
Dose of compounds of the invention: 1 mg/kg, i.v. except where appears

[3] = result in words, characteristic of drugs with merely K+-channel-activating activity; cited from earlier work
[4] = 5.0 mg/kg i.v. pretreatment (*)

Compound	ADD90 Change (%) ([1]; 10 mg/L)	ARD50 Change (%) ([1]; 10 mg/L)	ADD90 after treatment ([1]; 10 mg/L)	ARD50 after treatment ([1]; 10 mg/L)	Inhibition (%) of vasopressin-induced ST elevation ([2]; 1 mg/kg, i.v. pretreatment)	further results
CN1C(=O)c2ccccc2N=C(NCc2cccnc2)N1CCCN1CCN(c2ccccc2)CC1 [Example 20, 2-(3-pyridylmethylamino)-3-[3-(4-phenyl-1-piperazinyl)-1-propyl]-4-methyl-3,4-dihydro-1,3,4-benzotriazepin-5 (4H)-one]	-5%	-42%	227 ms	79 ms		
COc1cc(C(=O)OCCCN2C(N=C(N)N3CCCNCC3)=Nc3ccccc3C(=O)N2C)cc(OC)c1OC [Example 19, 2-[amino-(1-homopiperazinyl)-methyleneamino]-3-[3-(3,4,5-trimethoxybenzoyloxy)-1-propyl]-4-methyl-3,4-dihydro-1,3,4-benzotriazepin-5(4H)-one]	-9%	-25%	237 ms	121 ms	-59%	
O=C(NCCO[N+](=O)[O-])c1cccnc1 [Nicorandil, reference compound]					-12%	ADD90 Change (%) ([1]; Nicorandil 5 mg/L): -32%; ARD50 Change (%) ([1]; Nicorandil 5 mg/L): -41%; ADD90 after treatment ([1]; Nicorandil 5 mg/L): 179 ms; ARD50 after treatment ([1]; Nicorandil 5 mg/L): 107 ms; Inhibition (%) of vasopressin-induced ST elevation [2, 4]: -60%
CN1C(=O)c2ccccc2N=C(N=C(N)N2CCCCC2)N1Cc1ccccn1 [Example 22, 2-[amino-(1-piperidinyl)-methyleneamino]-3-(2-pyridylmethyl)-4-methyl-3,4-dihydro-1,3,4-benzotriazepin-5(4H)-one]	-10%	-39%	219 ms	97 ms	-59%	
CC(NC1=Nc2ccccc2C(=O)N(C)N1)C(C)(C)C (stereo not drawn) [Example 18, 2-(3,3-dimethyl-2-butylamino)-4-methyl-3,4-dihydro-1,3,4-benzotriazepin-5(4H)-one]	-15%	-29%	213 ms	111 ms		
CC(N/C(=N\C#N)Nc1ccncc1)C(C)(C)C (stereo not drawn) [Pinacidil, reference compound]						ADD90 Change (%) ([1]; Pinacidil 1 mg/L): -45%; ARD50 Change (%) ([1]; Pinacidil 1 mg/L): -61%; ADD90 after treatment ([1]; Pinacidil 1 mg/L): 141 ms; ARD50 after treatment ([1]; Pinacidil 1 mg/L): 71 ms; unpleasant side-effects [3]: tachycardia and the so-called "first dose effect"
CC(NC(N)=NC1=Nc2ccccc2C(=O)N(C)N1)C(C)(C)C (stereo not drawn) [Example 17, 2-[amino-(3,3-dimethyl-2-butylamino)-methyleneamino]-4-methyl-3,4-dihydro-1,3,4-benzotriazepin-5(4H)-one]	-13%	-42%	221 ms	91 ms	-68%	
CN1NC(N=C(N)N2CCCCC2)=Nc2ccccc2C1=O [Example 4, 2-[Amino-(1-piperidinyl)-methyleneamino]-4-methyl-3,4-dihydro-4H-1,3,4-benzotriazepin-5-one]	-10%	-33%	226 ms	113 ms		Inhibition (%) of vasopressin-induced ST elevation [2, 4]: -36%
